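A five-concentration, 48-hour dose response in 96-well plates underlies each endpoint, interpolated linearly between surrounding concentrations. TGI: total growth inhibition.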
Key:
Experiment in all cases: DTP human tumour cell line panel, 48 h
786-0 renal = system: 786-0 renal
A498 renal = system: A498 renal
A549 NSCLC = system: A549 NSCLC
ACHN renal = system: ACHN renal
BT-549 breast = system: BT-549 breast
CAKI-1 renal = system: CAKI-1 renal
CCRF-CEM leukemia = system: CCRF-CEM leukemia
COLO 205 colon = system: COLO 205 colon
DU-145 prostate = system: DU-145 prostate
EKVX NSCLC = system: EKVX NSCLC
HCC-2998 colon = system: HCC-2998 colon
HCT-116 colon = system: HCT-116 colon
HCT-15 colon = system: HCT-15 colon
HL-60(TB) leukemia = system: HL-60(TB) leukemia
HOP-92 NSCLC = system: HOP-92 NSCLC
HS 578T breast = system: HS 578T breast
HT29 colon = system: HT29 colon
IGROV1 ovarian = system: IGROV1 ovarian
K-562 leukemia = system: K-562 leukemia
KM12 colon = system: KM12 colon
LOX IMVI melanoma = system: LOX IMVI melanoma
M14 melanoma = system: M14 melanoma
MALME-3M melanoma = system: MALME-3M melanoma
MCF7 breast = system: MCF7 breast
MDA-MB-231 breast = system: MDA-MB-231 breast
MDA-MB-435 = system: MDA-MB-435
MDA-N = system: MDA-N
MOLT-4 leukemia = system: MOLT-4 leukemia
NCI-H226 lung = system: NCI-H226 lung
NCI-H23 lung = system: NCI-H23 lung
NCI-H460 lung = system: NCI-H460 lung
NCI-H522 lung = system: NCI-H522 lung
NCI/ADR-RES ovarian = system: NCI/ADR-RES ovarian
OVCAR-3 ovarian = system: OVCAR-3 ovarian
OVCAR-4 ovarian = system: OVCAR-4 ovarian
OVCAR-5 ovarian = system: OVCAR-5 ovarian
OVCAR-8 ovarian = system: OVCAR-8 ovarian
PC-3 prostate = system: PC-3 prostate
RPMI-8226 leukemia = system: RPMI-8226 leukemia
SF-268 CNS = system: SF-268 CNS
SF-295 CNS = system: SF-295 CNS
SF-539 CNS = system: SF-539 CNS
SK-MEL-2 melanoma = system: SK-MEL-2 melanoma
SK-MEL-28 melanoma = system: SK-MEL-28 melanoma
SK-MEL-5 melanoma = system: SK-MEL-5 melanoma
SK-OV-3 ovarian = system: SK-OV-3 ovarian
SN12C renal = system: SN12C renal
SNB-19 CNS = system: SNB-19 CNS
SR leukemia = system: SR leukemia
SW-620 colon = system: SW-620 colon
TK-10 renal = system: TK-10 renal
U251 CNS = system: U251 CNS
UACC-257 melanoma = system: UACC-257 melanoma
UACC-62 melanoma = system: UACC-62 melanoma
UO-31 renal = system: UO-31 renal
HOP-62 NSCLC = system: HOP-62 NSCLC
RXF 393 renal = system: RXF 393 renal
SNB-75 CNS = system: SNB-75 CNS
T-47D breast = system: T-47D breast

SMILES: COc1ccc(OC)c(N2C(=O)CSC2c2cc(OC)c(OC)c(OC)c2)c1 (stereo unspecified)
- TGI (786-0 renal): > 100 µM
- TGI (A498 renal): > 100 µM
- TGI (A549 NSCLC): > 100 µM
- TGI (ACHN renal): > 100 µM
- TGI (BT-549 breast): > 100 µM
- TGI (CAKI-1 renal): > 100 µM
- TGI (CCRF-CEM leukemia): > 100 µM
- TGI (COLO 205 colon): > 100 µM
- TGI (DU-145 prostate): > 100 µM
- TGI (EKVX NSCLC): > 100 µM
- TGI (HCC-2998 colon): > 100 µM
- TGI (HCT-116 colon): > 100 µM
- TGI (HCT-15 colon): > 100 µM
- TGI (HL-60(TB) leukemia): > 100 µM
- TGI (HOP-92 NSCLC): > 100 µM
- TGI (HS 578T breast): > 100 µM
- TGI (HT29 colon): > 100 µM
- TGI (IGROV1 ovarian): > 100 µM
- TGI (K-562 leukemia): > 100 µM
- TGI (KM12 colon): > 100 µM
- TGI (LOX IMVI melanoma): > 100 µM
- TGI (M14 melanoma): > 100 µM
- TGI (MALME-3M melanoma): > 100 µM
- TGI (MCF7 breast): > 100 µM
- TGI (MDA-MB-231 breast): > 100 µM
- TGI (MDA-MB-435): 86 µM
- TGI (MDA-N): > 100 µM
- TGI (MOLT-4 leukemia): > 100 µM
- TGI (NCI-H226 lung): > 100 µM
- TGI (NCI-H23 lung): > 100 µM
- TGI (NCI-H460 lung): > 100 µM
- TGI (NCI-H522 lung): > 100 µM
- TGI (NCI/ADR-RES ovarian): > 100 µM
- TGI (OVCAR-3 ovarian): > 100 µM
- TGI (OVCAR-4 ovarian): > 100 µM
- TGI (OVCAR-5 ovarian): > 100 µM
- TGI (OVCAR-8 ovarian): > 100 µM
- TGI (PC-3 prostate): > 100 µM
- TGI (RPMI-8226 leukemia): > 100 µM
- TGI (SF-268 CNS): > 100 µM
- TGI (SF-295 CNS): > 100 µM
- TGI (SF-539 CNS): > 100 µM
- TGI (SK-MEL-2 melanoma): > 100 µM
- TGI (SK-MEL-28 melanoma): > 100 µM
- TGI (SK-MEL-5 melanoma): > 100 µM
- TGI (SK-OV-3 ovarian): > 100 µM
- TGI (SN12C renal): > 100 µM
- TGI (SNB-19 CNS): > 100 µM
- TGI (SR leukemia): > 100 µM
- TGI (SW-620 colon): > 100 µM
- TGI (TK-10 renal): > 100 µM
- TGI (U251 CNS): > 100 µM
- TGI (UACC-257 melanoma): > 100 µM
- TGI (UACC-62 melanoma): > 100 µM
- TGI (UO-31 renal): > 100 µM

SMILES: CCCNC(=S)/N=C/c1c(O)c2ccccc2[nH]c1=O
- TGI (786-0 renal): > 100 µM
- TGI (A498 renal): > 100 µM
- TGI (A549 NSCLC): > 100 µM
- TGI (ACHN renal): > 100 µM
- TGI (BT-549 breast): > 100 µM
- TGI (CAKI-1 renal): > 100 µM
- TGI (CCRF-CEM leukemia): > 100 µM
- TGI (COLO 205 colon): > 100 µM
- TGI (DU-145 prostate): > 100 µM
- TGI (EKVX NSCLC): > 100 µM
- TGI (HCC-2998 colon): > 100 µM
- TGI (HCT-116 colon): > 100 µM
- TGI (HCT-15 colon): > 100 µM
- TGI (HL-60(TB) leukemia): > 100 µM
- TGI (HOP-62 NSCLC): > 100 µM
- TGI (HOP-92 NSCLC): > 100 µM
- TGI (HS 578T breast): > 100 µM
- TGI (HT29 colon): > 100 µM
- TGI (IGROV1 ovarian): > 100 µM
- TGI (K-562 leukemia): > 100 µM
- TGI (KM12 colon): > 100 µM
- TGI (LOX IMVI melanoma): > 100 µM
- TGI (M14 melanoma): > 100 µM
- TGI (MCF7 breast): > 100 µM
- TGI (MDA-MB-231 breast): > 100 µM
- TGI (MDA-MB-435): > 100 µM
- TGI (MDA-N): > 100 µM
- TGI (MOLT-4 leukemia): > 100 µM
- TGI (NCI-H226 lung): > 100 µM
- TGI (NCI-H23 lung): > 100 µM
- TGI (NCI-H460 lung): > 100 µM
- TGI (NCI-H522 lung): > 100 µM
- TGI (NCI/ADR-RES ovarian): > 100 µM
- TGI (OVCAR-3 ovarian): > 100 µM
- TGI (OVCAR-4 ovarian): > 100 µM
- TGI (OVCAR-5 ovarian): > 100 µM
- TGI (OVCAR-8 ovarian): > 100 µM
- TGI (PC-3 prostate): > 100 µM
- TGI (RPMI-8226 leukemia): > 100 µM
- TGI (RXF 393 renal): > 100 µM
- TGI (SF-268 CNS): > 100 µM
- TGI (SF-295 CNS): > 100 µM
- TGI (SF-539 CNS): > 100 µM
- TGI (SK-MEL-2 melanoma): > 100 µM
- TGI (SK-MEL-5 melanoma): > 100 µM
- TGI (SK-OV-3 ovarian): > 100 µM
- TGI (SN12C renal): > 100 µM
- TGI (SNB-19 CNS): > 100 µM
- TGI (SNB-75 CNS): > 100 µM
- TGI (SW-620 colon): > 100 µM
- TGI (T-47D breast): > 100 µM
- TGI (TK-10 renal): > 100 µM
- TGI (U251 CNS): > 100 µM
- TGI (UACC-257 melanoma): > 100 µM
- TGI (UACC-62 melanoma): > 100 µM
- TGI (UO-31 renal): > 100 µM

Reference: PubChem BioAssay (NCI)
